The record followed here is patent US20260183302A1, “PDK1 REGULATORY COMPOUND AND COMPOSITION CONTAINING THE SAME” (PROVIBIO CO., LTD., priority 2024, published 2026).

In one series the target is T1, PDK1 (Homo sapiens, UniProt O15530).
T1 construct: purchased Promega V9681
T1 sequence (O15530 1-556): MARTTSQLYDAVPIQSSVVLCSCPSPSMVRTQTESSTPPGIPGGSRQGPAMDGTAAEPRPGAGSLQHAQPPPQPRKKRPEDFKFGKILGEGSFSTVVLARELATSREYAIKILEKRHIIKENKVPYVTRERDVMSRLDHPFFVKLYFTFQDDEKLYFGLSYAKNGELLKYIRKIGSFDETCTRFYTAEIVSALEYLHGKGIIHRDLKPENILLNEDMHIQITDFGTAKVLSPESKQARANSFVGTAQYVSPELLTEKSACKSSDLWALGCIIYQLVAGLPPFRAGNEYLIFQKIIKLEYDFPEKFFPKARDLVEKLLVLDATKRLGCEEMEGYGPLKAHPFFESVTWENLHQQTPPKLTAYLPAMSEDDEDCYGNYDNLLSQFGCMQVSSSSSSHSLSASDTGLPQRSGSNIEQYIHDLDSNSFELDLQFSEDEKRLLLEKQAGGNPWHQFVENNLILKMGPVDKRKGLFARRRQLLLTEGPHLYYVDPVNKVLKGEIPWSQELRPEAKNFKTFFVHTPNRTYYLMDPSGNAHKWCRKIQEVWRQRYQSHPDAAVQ
Briefly: IC50 for inhibiting PDK1 kinase activity. The format is biochemical. On the procedure: Additionally, enzyme kinetics analysis was performed to quantitatively analyze the effect of the compounds of the present invention on the enzymatic activity of PDK1 (3-Phosphoinositide-dependent protein kinase-1) and to confirm the inhibition pattern.
Prior to the analysis, the half-maximal inhibitory concentration (IC50) values of the compounds GO15F, GO86, and GO88 of the present invention for inhibiting PDK1 kinase activity were determined, and the results are shown in FIG. 4.

Series [1] deals with Human multiple myeloma, KMS34. Briefly: Relative cell viability, KMS34 (CCK-8). The note with it: concentration 1 μM, relative to untreated cells. The format is cell-based. On the procedure:
After that, 10 μL of CCK-8 was added to each well, and the plate was incubated again at 37° C. in a 5% CO2 incubator for 2 hours.
In other words, when the survival rate of untreated cells (DMSO) is set at 100%, the relative cell survival rate in each group treated with the drug at different concentrations is indicated.

The test system of series [2] is HCT-116 colon cancer cell lines. Briefly: Matrigel Invasion Assay on HCT-116 colon cancer cell line. Type of series: cell-based, human. The settings on record: HCT-116, Matrigel, 24 hours treatment, vs DMSO. On the procedure:
To evaluate the metastasis inhibitory efficacy of the compounds of the present invention on HCT-116 colon cancer cell lines, an Invasion Assay using Matrigel was performed to assess the cells' invasion ability.
First, Matrigel was thawed on ice in RPMI-1640 medium without FBS, then diluted with DMEM at a ratio of 1:20.
The diluted Matrigel mixture was applied to the upper chamber at 100 μl per well, and 750 μl of RPMI-1640 without FBS was added to the lower chamber.
The plates were then incubated at 37° C. for 1 hour to allow the Matrigel to solidify.
After coating, the Matrigel mixture in the upper chamber was removed using a pipette, and the chamber was washed with RPMI without FBS.
Human-derived colorectal cancer cell line HCT-116, obtained from the Korean Cell Bank, was cultured in RPMI-1640 medium containing 10% FBS.
Following stabilization, the cells were harvested using Trypsin-EDTA treatment, centrifuged at 1,200 rpm for 3 minutes, the supernatant was removed, and the cells were resuspended in the same medium, the medium in the lower chamber was replaced with 750 μl of RPMI-1640 supplemented with 10% FBS, and the cells were seeded into the upper chamber at a density of 5×10^4 cells/well.
The cells were cultured for 24 hours after attachment, and then the compounds according to the present invention (G078, G085, G086, G088, G089, PBK-2024-010, PBK-2025-010, PBK-2025-013, PBK-2025-016) and the control substance DMSO were diluted and added to the upper chamber after removing the medium.
Additionally, the medium in the lower chamber was replaced with fresh RPMI-1640 containing FBS, and the culture was continued.
After an additional 24 hours, the medium was removed, and 1 ml of methanol was added for 10 minutes to fix the cells.
Subsequently, 1 ml of Hematoxylin was added and reacted for 5 minutes, followed by 1 ml of Eosin, which was reacted for 30 seconds. The sample was then washed with distilled water (DW).
After staining was complete, any remaining cells in the upper chamber were removed. Finally, the infiltrated cells were observed under a microscope, photographed, and the degree of infiltration was analyzed.

Series [3] relates to NHDF (Normal Human Dermal Fibroblast) cells. The experiment in a line: Anti-aging in doxorubicin/IGF-1 aged NHDF cells (SA-β-gal, Ki-67 FACS). The format is cell-based. The note with it: Doxorubicin (100 ng/ml) and IGF-1 (100 ng/ml), GO15F 0.01, 1 μM, 7 days. As for the experimental part: To confirm the anti-aging and rejuvenating effects of the compound GO15F of the present invention, a NHDF (Normal Human Dermal Fibroblast, Promocell) cell model was established by inducing aging with doxorubicin (Doxorubicin), and β-galactosidase activity and Ki-67 expression were analyzed in the cells. First, NHDF cells were seeded at 1×10^4 cells per well in a 12-well plate and stabilized for 24 hours. […] After pre-incubation, the medium was removed, and the cells were cultured for 7 days in medium containing Doxorubicin (100 ng/ml) and IGF-1 (100 ng/ml) with GO15F. During this process, the medium was replaced with fresh medium every 2 days. The cultured cells were washed with PBS, fixed with 1× fixation buffer for 15 minutes, washed again with PBS, and then 300 μL of 1× working SA-β-gal buffer was added to each well. The cells were incubated at 37° C. for 24 hours. After the reaction was terminated, the cells were washed with PBS, and the […] of β-gal-positive cells stained blue was observed and photographed using a light microscope. Additionally, to investigate the effect of the compound (GO15F) of the present invention on proliferation activity in aging-induced NHDF (Normal Human Dermal Fibroblast) cells, Ki-67 expression was measured via FACS analysis. First, NHDF cells were seeded at 1×10^4 cells per well in a 12-well plate and stabilized for 24 hours. […]

At PDK1, “12-[4-(2,2-dimethylmorpholin-4-yl)]dodecyl-N-(6-aminopurine-2-yl) carboxamide [Compound 11]” came in with a half-inhibitory concentration (IC50) of 11.3 nM. In addition, the “Relative cell viability (%)” value in series [1] came to 26.19%. Besides, in series [2], the “number of infiltrated cells (invasion)” value was “reduction in the number of infiltrated cells”.

Turning to `Nc1ncccc1C(=O)NCCCCCCCCCCCCF` [Compound 57, 2-Amino-N-(12-fluoro-dodecyl)-nicotinamide], the “β-galactosidase activity (β-gal-positive cells)” value in series [3] was “number of β-gal-positive cells decreased”.

What is called IC50 is the concentration needed to halve the response being measured.
